Data published in patent US10988523B2, “Modified lipidated Relaxin B chain peptides and their therapeutic use” (Sanofi, priority 2018, dated 2021).
*1 amine or outer side, *2 acyl side, *3 side chain or, on linkers, in order; H or OH if unused. Where a SMILES comes first, the peptide text is derived from it. Side-chain parts run from the residue outwards. [ ]: non-standard residue; d: D form. The star is where a group is joined. γGlu = O=C(O)[C@H](CCC(=O)[*:2])N[*:1]; Stearoyl = CCCCCCCCCCCCCCCCCC(=O)*; Palmitoyl = CCCCCCCCCCCCCCCC(=O)*; Lauroyl = CCCCCCCCCCCC(=O)*; Nle = CCCC[C@H](N)C(=O)O; AEEA = NCCOCCOCC(=O)O; Aib = CC(C)(N)C(=O)O

Target: T1, RXFP1 (Homo sapiens, UniProt Q9HBX9)
T1 construct: OVCAR5 cells expressing endogenous RXFP1; endogenous in cells; host or cells: OVCAR5 cells
T1 sequence (Q9HBX9 1-757): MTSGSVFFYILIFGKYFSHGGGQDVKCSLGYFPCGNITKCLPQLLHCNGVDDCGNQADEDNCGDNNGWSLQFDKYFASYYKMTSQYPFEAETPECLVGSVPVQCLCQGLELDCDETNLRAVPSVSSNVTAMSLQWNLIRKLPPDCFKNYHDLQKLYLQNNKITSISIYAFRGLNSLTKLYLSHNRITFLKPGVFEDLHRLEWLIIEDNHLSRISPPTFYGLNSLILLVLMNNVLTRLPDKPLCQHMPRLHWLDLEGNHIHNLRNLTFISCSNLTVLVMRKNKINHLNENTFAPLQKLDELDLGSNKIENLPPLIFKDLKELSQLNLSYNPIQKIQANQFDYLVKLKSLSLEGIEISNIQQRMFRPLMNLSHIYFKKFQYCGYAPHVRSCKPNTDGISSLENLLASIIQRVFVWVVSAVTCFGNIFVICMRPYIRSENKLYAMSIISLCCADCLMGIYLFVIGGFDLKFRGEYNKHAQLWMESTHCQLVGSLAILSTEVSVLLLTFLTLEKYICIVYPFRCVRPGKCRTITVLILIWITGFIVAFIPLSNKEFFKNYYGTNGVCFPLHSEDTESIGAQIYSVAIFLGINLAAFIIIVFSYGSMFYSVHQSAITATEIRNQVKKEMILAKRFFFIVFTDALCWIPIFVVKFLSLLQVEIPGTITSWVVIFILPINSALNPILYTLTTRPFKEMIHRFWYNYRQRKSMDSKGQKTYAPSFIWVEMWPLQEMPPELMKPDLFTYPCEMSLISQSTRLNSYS
Assay: OVCAR5 cAMP assay (HTRF), RXFP1 agonist activity
Format: cell-based
Conditions: for Emax: OVCAR-5, maximal cAMP relative to H2-relaxin maximum (100%), read-out: EMax, OVCAR 5 cells (cAMP); for EC50: OVCAR5 cells, cAMP HTRF, read-out: EC50 (nM), OVCAR 5 cells (cAMP)
Summary of the method: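 cAMP accumulation readout: after 1 mM IBMX for 40 min, endogenous-RXFP1 OVCAR5 cells got rising peptide concentrations without FCS, 30 min, 37° C, then lysis with HTRF cAMP reagents. Nonlinear regression gave EC50; Emax expressed relative to H2-relaxin maximum, same occasion.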

Q: For `CCCCCCCCCCCCCCCC(=O)N[C@@H](CCC(=O)N[C@@H](CCC(=O)N[C@@H](CCC(=O)NCCCC[C@H](NC(=O)COCCOCCNC(=O)COCCOCCNC(=O)COCCOCCNC(=O)[C@H](CCCCNC(C)=O)NC(=O)[C@H](CCCCN)NC(=O)[C@H](CCCNC(=N)N)NC(=O)C(C)(C)NC(=O)[C@H](CO)NC(=O)[C@H](Cc1c[nH]c2ccccc12)NC(=O)[C@@H](NC(=O)[C@H](CO)NC(=O)[C@H](CCCC)NC(=O)CNC(=O)[C@H](CCC(=O)O)NC(=O)C(C)(C)NC(=O)C(C)(C)NC(=O)[C@@H](NC(=O)[C@H](CCCCNC(C)=O)NC(=O)[C@H](C)NC(=O)[C@H](CCCNC(=N)N)NC(=O)[C@@H](NC(=O)[C@H](CCCCN)NC(=O)[C@H](CCC(=O)O)NC(=O)[C@H](CCCNC(=N)N)NC(=O)CNC(=O)[C@H](CCC(=O)O)NC(=O)[C@H](CC(C)C)NC(C)=O)C(C)C)[C@@H](C)CC)[C@@H](C)O)C(N)=O)C(=O)O)C(=O)O)C(=O)O` [compound 114] (Ac-LEGREKVRAK(Ac)I[Aib][Aib]EG[Nle]STWS[Aib]RKK(Ac)[AEEA][AEEA][AEEA]K([γGlu-γGlu-γGlu-Palmitoyl])-NH2), which Emax is on record?
A: 90%

Q: How did the EC50 turn out when `CCCCCCCCCCCCCCCCCC(=O)N[C@@H](CCC(=O)N[C@@H](CCC(=O)N[C@@H](CCC(=O)N[C@@H](CCC(=O)NCCOCCOCC(=O)NCCOCCOCC(=O)NCCOCCOCC(=O)NCCCC[C@H](NC(=O)[C@H](CCCCN)NC(=O)[C@H](CCCCN)NC(=O)[C@H](CCCNC(=N)N)NC(=O)C(C)(C)NC(=O)[C@H](CO)NC(=O)[C@H](Cc1c[nH]c2ccccc12)NC(=O)[C@@H](NC(=O)[C@H](CO)NC(=O)[C@H](CCC(N)=O)NC(=O)CNC(=O)[C@H](CCC(=O)O)NC(=O)C(C)(C)NC(=O)C(C)(C)NC(=O)[C@@H](NC(=O)[C@H](CCCCNC(C)=O)NC(=O)[C@H](C)NC(=O)[C@H](CCCNC(=N)N)NC(=O)[C@@H](NC(=O)[C@H](CCCCN)NC(=O)[C@H](CCC(=O)O)NC(=O)[C@H](CCCNC(=N)N)NC(=O)CNC(=O)[C@H](CCC(=O)O)NC(=O)[C@H](CC(C)C)NC(C)=O)C(C)C)[C@@H](C)CC)[C@@H](C)O)C(N)=O)C(=O)O)C(=O)O)C(=O)O)C(=O)O` [compound 115] (Ac-LEGREKVRAK(Ac)I[Aib][Aib]EGQSTWS[Aib]RKKK([AEEA-AEEA-AEEA-γGlu-γGlu-γGlu-γGlu-Stearoyl])-NH2) was run?
A: 0.17 nM

Q: And the Emax?
A: 93%

Q: With `CCCCCCCCCCCCCCCC(=O)N[C@@H](CCC(=O)NCCCC[C@H](NC(=O)CC[C@H](NC(=O)CC[C@H](NC(=O)COCCOCCNC(=O)COCCOCCNC(=O)COCCOCCNC(=O)COCCOCCNC(=O)[C@H](CCCCNC(C)=O)NC(=O)[C@H](CCCCN)NC(=O)[C@H](CCCNC(=N)N)NC(=O)C(C)(C)NC(=O)[C@H](CO)NC(=O)[C@H](Cc1c[nH]c2ccccc12)NC(=O)[C@@H](NC(=O)[C@H](CO)NC(=O)[C@H](CCCC)NC(=O)CNC(=O)[C@H](CCC(=O)O)NC(=O)C(C)(C)NC(=O)C(C)(C)NC(=O)[C@@H](NC(=O)[C@H](CCCCNC(C)=O)NC(=O)[C@H](C)NC(=O)[C@H](CCCNC(=N)N)NC(=O)[C@@H](NC(=O)[C@H](CCCCN)NC(=O)[C@H](CCC(=O)O)NC(=O)[C@H](CCCNC(=N)N)NC(=O)CNC(=O)[C@H](CCC(=O)O)NC(=O)[C@H](CC(C)C)NC(C)=O)C(C)C)[C@@H](C)CC)[C@@H](C)O)C(=O)O)C(=O)O)C(N)=O)C(=O)O` [compound 116] (Ac-LEGREKVRAK(Ac)I[Aib][Aib]EG[Nle]STWS[Aib]RKK(Ac)[AEEA][AEEA][AEEA][AEEA][γGlu][γGlu]K([γGlu-Palmitoyl])-NH2) as the molecule, how does the EC50 read?
A: 1 nM

Q: What about the Emax of the same molecule?
A: 89%

Q: How did the Emax turn out when `CCCCCCCCCCCCCCCC(=O)N[C@@H](CCC(=O)NCCCC[C@H](NC(=O)CC[C@H](NC(=O)CC[C@H](NC(=O)COCCOCCNC(=O)COCCOCCNC(=O)COCCOCCNC(=O)[C@H](CCCCNC(C)=O)NC(=O)[C@H](CCCCN)NC(=O)[C@H](CCCNC(=N)N)NC(=O)C(C)(C)NC(=O)[C@H](CO)NC(=O)[C@H](Cc1c[nH]c2ccccc12)NC(=O)[C@@H](NC(=O)[C@H](CO)NC(=O)[C@H](CCCC)NC(=O)CNC(=O)[C@H](CCC(=O)O)NC(=O)C(C)(C)NC(=O)C(C)(C)NC(=O)[C@@H](NC(=O)[C@H](CCCCNC(C)=O)NC(=O)[C@H](C)NC(=O)[C@H](CCCNC(=N)N)NC(=O)[C@@H](NC(=O)[C@H](CCCCN)NC(=O)[C@H](CCC(=O)O)NC(=O)[C@H](CCCNC(=N)N)NC(=O)CNC(=O)[C@H](CCC(=O)O)NC(=O)[C@H](CC(C)C)NC(C)=O)C(C)C)[C@@H](C)CC)[C@@H](C)O)C(=O)O)C(=O)O)C(N)=O)C(=O)O` [compound 117] (Ac-LEGREKVRAK(Ac)I[Aib][Aib]EG[Nle]STWS[Aib]RKK(Ac)[AEEA][AEEA][AEEA][γGlu][γGlu]K([γGlu-Palmitoyl])-NH2) was run?
A: 86%

Q: `CCCCCCCCCCCCCCCC(=O)N[C@@H](CCC(=O)NCCCC[C@H](NC(=O)CC[C@H](NC(=O)CC[C@H](NC(=O)COCCOCCNC(=O)COCCOCCNC(=O)[C@H](CCCCNC(C)=O)NC(=O)[C@H](CCCCN)NC(=O)[C@H](CCCNC(=N)N)NC(=O)C(C)(C)NC(=O)[C@H](CO)NC(=O)[C@H](Cc1c[nH]c2ccccc12)NC(=O)[C@@H](NC(=O)[C@H](CO)NC(=O)[C@H](CCCC)NC(=O)CNC(=O)[C@H](CCC(=O)O)NC(=O)C(C)(C)NC(=O)C(C)(C)NC(=O)[C@@H](NC(=O)[C@H](CCC(N)=O)NC(=O)[C@H](C)NC(=O)[C@H](CCCNC(=N)N)NC(=O)[C@@H](NC(=O)[C@H](CCCCN)NC(=O)[C@H](CCC(=O)O)NC(=O)[C@H](CCCNC(=N)N)NC(=O)CNC(=O)[C@H](CCC(=O)O)NC(=O)[C@H](CC(C)C)NC(C)=O)C(C)C)[C@@H](C)CC)[C@@H](C)O)C(=O)O)C(=O)O)C(N)=O)C(=O)O` [compound 118] (Ac-LEGREKVRAQI[Aib][Aib]EG[Nle]STWS[Aib]RKK(Ac)[AEEA][AEEA][γGlu][γGlu]K([γGlu-Palmitoyl])-NH2) was tested. Which Emax did it give?
A: 86%

Q: Which results are given for `CCCCCCCCCCCCCCCC(=O)N[C@@H](CCC(=O)NCCCC[C@H](NC(=O)CC[C@H](NC(=O)CC[C@H](NC(=O)COCCOCCNC(=O)COCCOCCNC(=O)COCCOCCNC(=O)[C@H](CCCCNC(C)=O)NC(=O)[C@H](CCCCN)NC(=O)[C@H](CCCNC(=N)N)NC(=O)C(C)(C)NC(=O)[C@H](CO)NC(=O)[C@H](Cc1c[nH]c2ccccc12)NC(=O)[C@@H](NC(=O)[C@H](CO)NC(=O)[C@H](CCCC)NC(=O)CNC(=O)[C@H](CCC(=O)O)NC(=O)C(C)(C)NC(=O)C(C)(C)NC(=O)[C@@H](NC(=O)[C@H](CCC(N)=O)NC(=O)[C@H](C)NC(=O)[C@H](CCCNC(=N)N)NC(=O)[C@@H](NC(=O)[C@H](CCCCN)NC(=O)[C@H](CCC(=O)O)NC(=O)[C@H](CCCNC(=N)N)NC(=O)CNC(=O)[C@H](CCC(=O)O)NC(=O)[C@H](CC(C)C)NC(C)=O)C(C)C)[C@@H](C)CC)[C@@H](C)O)C(=O)O)C(=O)O)C(N)=O)C(=O)O` [compound 119] (Ac-LEGREKVRAQI[Aib][Aib]EG[Nle]STWS[Aib]RKK(Ac)[AEEA][AEEA][AEEA][γGlu][γGlu]K([γGlu-Palmitoyl])-NH2)?
A: EC50: 1.21 nM; Emax: 83%

Q: Which Emax does the source give for `CCCCCCCCCCCC(=O)N[C@@H](CCC(=O)N[C@@H](CCC(=O)N[C@@H](CCC(=O)NCCOCCOCC(=O)NCCOCCOCC(=O)NCCOCCOCC(=O)NCCCC[C@H](NC(=O)[C@H](CCCCNC(C)=O)NC(=O)[C@H](CCCCN)NC(=O)[C@H](CCCNC(=N)N)NC(=O)C(C)(C)NC(=O)[C@H](CO)NC(=O)[C@H](Cc1c[nH]c2ccccc12)NC(=O)[C@@H](NC(=O)[C@H](CO)NC(=O)[C@H](CCCC)NC(=O)CNC(=O)[C@H](CCC(=O)O)NC(=O)C(C)(C)NC(=O)C(C)(C)NC(=O)[C@@H](NC(=O)[C@H](CCCCNC(C)=O)NC(=O)[C@H](C)NC(=O)[C@H](CCCNC(=N)N)NC(=O)[C@@H](NC(=O)[C@H](CCCCN)NC(=O)[C@H](CCC(=O)O)NC(=O)[C@H](CCCNC(=N)N)NC(=O)CNC(=O)[C@H](CCC(=O)O)NC(=O)[C@H](CC(C)C)NC(C)=O)C(C)C)[C@@H](C)CC)[C@@H](C)O)C(N)=O)C(=O)O)C(=O)O)C(=O)O` [compound 120] (Ac-LEGREKVRAK(Ac)I[Aib][Aib]EG[Nle]STWS[Aib]RKK(Ac)K([AEEA-AEEA-AEEA-γGlu-γGlu-γGlu-Lauroyl])-NH2) here?
A: 92%
